Results: US20230085307A1, “PYRIDAZINONE COMPOUND AND HERBICIDE” (NISSAN CHEMICAL CORPORATION, priority 2019, published 2023)

Experiments:
late watergrass = test: Test Example 1: herbicidal activity, application before weed generation under submerged conditions (Table 16, symbol A); format: in vivo, late watergrass (Echinochloa oryzicola)
In short: (§1)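 Alluvial soil was flooded to 4 cm depth, weed seeds were sown mixed and 2.5-leaf rice seedlings were transplanted. On sowing day, the compound's emulsion, diluted in water to a set dose, was applied to the water surface. Plants grew at 25–30 °C and were scored 0–5 after three weeks.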

Japanese bulrush = test: Test Example 1: herbicidal activity, application before weed generation under submerged conditions (Table 16, symbol B); format: in vivo, Japanese bulrush (Schoenoplectus juncoides)
In short: as §1

oval-leafed pondweed = test: Test Example 1: herbicidal activity, application before weed generation under submerged conditions (Table 16, symbol C); format: in vivo, oval-leafed pondweed (Monochoria vaginalis)
In short: as §1

barnyard grass [1] = test: Test Example 3: herbicidal effect by foliage application, Wagner pot (Table 18, symbol H); format: in vivo, barnyard grass (Echinochloa crus-galli)
In short: (§2)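 Plants were sown in alluvial soil held under 0.1–0.5 cm standing water and grown 14 days in a greenhouse at 25–30 °C. An emulsifiable formulation, water-diluted to the set dose, was then sprayed onto the foliage, and effects were scored three weeks later using previously defined criteria.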

Chinese sprangletop = test: Test Example 3: herbicidal effect by foliage application, Wagner pot (Table 18, symbol D); format: in vivo, chinese sprangletop (Leptochloa chinensis)
In short: as §2

rice flat sedge = test: Test Example 3: herbicidal effect by foliage application, Wagner pot (Table 18, symbol E); format: in vivo, rice flat sedge (Cyperus iria)
In short: as §2

southern crabgrass [2] = test: Test Example 4: herbicidal effect by soil treatment (Table 19, symbol F); format: in vivo, southern crabgrass (Digitaria ciliaris)
In short: (§3)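 Applied as a water-diluted emulsion, the compound was sprayed onto soil covering newly sown seeds. Evaluation came three weeks after application, in a greenhouse held at 25° C. to 30° C.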

green foxtail [3] = test: Test Example 4: herbicidal effect by soil treatment (Table 19, symbol G); format: in vivo, green foxtail (Setaria viridis)
In short: as §3

barnyard grass [4] = test: Test Example 4: herbicidal effect by soil treatment (Table 19, symbol H); format: in vivo, barnyard grass (Echinochloa crus-galli)
In short: as §3

wild oat [5] = test: Test Example 4: herbicidal effect by soil treatment (Table 19, symbol I); format: in vivo, wild oat (Avena fatua)
In short: as §3

blackgrass [6] = test: Test Example 4: herbicidal effect by soil treatment (Table 19, symbol J); format: in vivo, blackgrass (Alopecurus myosuroides)
In short: as §3

Italian ryegrass [7] = test: Test Example 4: herbicidal effect by soil treatment (Table 19, symbol K); format: in vivo, Italian ryegrass (Lolium multiflorum)
In short: as §3

windgrass [8] = test: Test Example 4: herbicidal effect by soil treatment (Table 19, symbol L); format: in vivo, windgrass (Apera spica-venti)
In short: as §3

velvetleaf [9] = test: Test Example 4: herbicidal effect by soil treatment (Table 19, symbol M); format: in vivo, velvetleaf (Abutilon theophrasti)
In short: as §3

redroot pigweed = test: Test Example 4: herbicidal effect by soil treatment (Table 19, symbol N); format: in vivo, redroot pigweed (Amaranthus retroflexus)
In short: as §3

lambsquarters [10] = test: Test Example 4: herbicidal effect by soil treatment (Table 19, symbol O); format: in vivo, lambsquarters (Chenopodium album)
In short: as §3

chickweed = test: Test Example 4: herbicidal effect by soil treatment (Table 19, symbol P); format: in vivo, common chickweed (Stellaria media)
In short: as §3

persian speedwell [11] = test: Test Example 4: herbicidal effect by soil treatment (Table 19, symbol R); format: in vivo, Persian speedwell (Veronica persica)
In short: as §3

southern crabgrass [12] = test: Test Example 5: herbicidal effect by foliage application, plastic box (Table 20, symbol F); format: in vivo, southern crabgrass (Digitaria ciliaris); conditions: foliage application
In short: (§4)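 Sow seeds spot-wise in sterilized diluvial soil; cover with ~1.5 cm soil. Grow 14 days in greenhouse, 25° C. to 30° C. Spray foliage with emulsion diluted to predetermined amount. Rate effect after 3 weeks.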

green foxtail [13] = test: Test Example 5: herbicidal effect by foliage application, plastic box (Table 20, symbol G); format: in vivo, green foxtail (Setaria viridis); conditions: foliage application
In short: as §4

barnyard grass [14] = test: Test Example 5: herbicidal effect by foliage application, plastic box (Table 20, symbol H); format: in vivo, barnyard grass (Echinochloa crus-galli); conditions: foliage application
In short: as §4

wild oat [15] = test: Test Example 5: herbicidal effect by foliage application, plastic box (Table 20, symbol I); format: in vivo, wild oat (Avena fatua); conditions: foliage application
In short: as §4

blackgrass [16] = test: Test Example 5: herbicidal effect by foliage application, plastic box (Table 20, symbol J); format: in vivo, blackgrass (Alopecurus myosuroides); conditions: foliage application
In short: as §4

Italian ryegrass [17] = test: Test Example 5: herbicidal effect by foliage application, plastic box (Table 20, symbol K); format: in vivo, Italian ryegrass (Lolium multiflorum); conditions: foliage application
In short: as §4

windgrass [18] = test: Test Example 5: herbicidal effect by foliage application, plastic box (Table 20, symbol L); format: in vivo, windgrass (Apera spica-venti); conditions: foliage application
In short: as §4

velvetleaf [19] = test: Test Example 5: herbicidal effect by foliage application, plastic box (Table 20, symbol M); format: in vivo, velvetleaf (Abutilon theophrasti); conditions: foliage application
In short: as §4

lambsquarters [20] = test: Test Example 5: herbicidal effect by foliage application, plastic box (Table 20, symbol O); format: in vivo, lambsquarters (Chenopodium album); conditions: foliage application
In short: as §4

persian speedwell [21] = test: Test Example 5: herbicidal effect by foliage application, plastic box (Table 20, symbol R); format: in vivo, Persian speedwell (Veronica persica); conditions: foliage application
In short: as §4

[22] = amount of applied herbicide 344 g/ha
[23] = 344 g/ha, three weeks after application
[24] = 320 g/ha, 3 weeks after application

CCCC(=O)Oc1c(C)nn(C)c(=O)c1-c1c(-c2ccc(F)cc2OC)sc2cc(OC)c(Cl)cc12 [5-076]
Herbicidal effect, A: late watergrass (late watergrass; [22]): 2 (Herbicidal rate of 20% or more and less than 40%)
Herbicidal effect, B: Japanese bulrush (Japanese bulrush; [22]): 0 (Herbicidal rate of 5% or less (almost no effect))
Herbicidal effect, C: oval-leafed pondweed (oval-leafed pondweed; [22]): 1 (Herbicidal rate of 5% or more and less than 20%)
herbicidal effect on barnyard grass (H) (barnyard grass [1]; 344 g/ha): 5 (Herbicidal rate of 90% or more (almost completely withered))
herbicidal effect on Chinese sprangletop (D) (Chinese sprangletop; 344 g/ha): 0 (Herbicidal rate of 5% or less (almost no effect))
herbicidal effect on rice flat sedge (E) (rice flat sedge; 344 g/ha): 0 (Herbicidal rate of 5% or less (almost no effect))
F: southern crabgrass, herbicidal effect grade (southern crabgrass [2]; [22]): 3 (Herbicidal rate of 40% or more and less than 70%)
G: green foxtail, herbicidal effect grade (green foxtail [3]; [22]): 3 (Herbicidal rate of 40% or more and less than 70%)
H: barnyard grass, herbicidal effect grade (barnyard grass [4]; [22]): 1 (Herbicidal rate of 5% or more and less than 20%)
I: wild oat, herbicidal effect grade (wild oat [5]; [22]): 0 (Herbicidal rate of 5% or less (almost no effect))
J: blackgrass, herbicidal effect grade (blackgrass [6]; [22]): 0 (Herbicidal rate of 5% or less (almost no effect))
K: Italian ryegrass, herbicidal effect grade (Italian ryegrass [7]; [22]): 0 (Herbicidal rate of 5% or less (almost no effect))
L: windgrass, herbicidal effect grade (windgrass [8]; [22]): 0 (Herbicidal rate of 5% or less (almost no effect))
M: velvetleaf, herbicidal effect grade (velvetleaf [9]; [22]): 1 (Herbicidal rate of 5% or more and less than 20%)
N: redroot pigweed, herbicidal effect grade (redroot pigweed; [22]): 4 (Herbicidal rate of 70% or more and less than 90%)
O: lambsquarters, herbicidal effect grade (lambsquarters [10]; [22]): 3 (Herbicidal rate of 40% or more and less than 70%)
P: chickweed, herbicidal effect grade (chickweed; [22]): 0 (Herbicidal rate of 5% or less (almost no effect))
R: persian speedwell, herbicidal effect grade (persian speedwell [11]; [22]): 0 (Herbicidal rate of 5% or less (almost no effect))
herbicidal effect on southern crabgrass (F) (southern crabgrass [12]; [23]): 1 (Herbicidal rate of 5% or more and less than 20%)
herbicidal effect on green foxtail (G) (green foxtail [13]; [23]): 4 (Herbicidal rate of 70% or more and less than 90%)
herbicidal effect on barnyard grass (H) (barnyard grass [14]; [23]): 3 (Herbicidal rate of 40% or more and less than 70%)
herbicidal effect on wild oat (I) (wild oat [15]; [23]): 0 (Herbicidal rate of 5% or less (almost no effect))
herbicidal effect on blackgrass (J) (blackgrass [16]; [23]): 1 (Herbicidal rate of 5% or more and less than 20%)
herbicidal effect on Italian ryegrass (K) (Italian ryegrass [17]; [23]): 0 (Herbicidal rate of 5% or less (almost no effect))
herbicidal effect on windgrass (L) (windgrass [18]; [23]): 3 (Herbicidal rate of 40% or more and less than 70%)
herbicidal effect on velvetleaf (M) (velvetleaf [19]; [23]): 3 (Herbicidal rate of 40% or more and less than 70%)
herbicidal effect on lambsquarters (O) (lambsquarters [20]; [23]): 4 (Herbicidal rate of 70% or more and less than 90%)
herbicidal effect on persian speedwell (R) (persian speedwell [21]; [23]): 0 (Herbicidal rate of 5% or less (almost no effect))

CCCCCCOc1ccc(-c2sc3ccc(F)cc3c2-c2c(OC(=O)CCC)c(C)nn(C)c2=O)cc1 [2-041]
Herbicidal effect on A: late watergrass (grade 0-5) (late watergrass; 320 g/ha applied herbicide): 3 (Herbicidal rate of 40% or more and less than 70%)
Herbicidal effect on B: Japanese bulrush (grade 0-5) (Japanese bulrush; 320 g/ha applied herbicide): 0 (Herbicidal rate of 5% or less (almost no effect))
Herbicidal effect on C: oval-leafed pondweed (grade 0-5) (oval-leafed pondweed; 320 g/ha applied herbicide): 0 (Herbicidal rate of 5% or less (almost no effect))
herbicidal effect on H (barnyard grass), rating 0-5 (barnyard grass [1]; 320 g/ha): 3 (Herbicidal rate of 40% or more and less than 70%)
herbicidal effect on D (Chinese sprangletop), rating 0-5 (Chinese sprangletop; 320 g/ha): 3 (Herbicidal rate of 40% or more and less than 70%)
herbicidal effect on E (rice flat sedge), rating 0-5 (rice flat sedge; 320 g/ha): 1 (Herbicidal rate of 5% or more and less than 20%)
herbicidal effect rating, F: southern crabgrass (southern crabgrass [2]; 320 g/ha): 0 (Herbicidal rate of 5% or less (almost no effect))
herbicidal effect rating, G: green foxtail (green foxtail [3]; 320 g/ha): 0 (Herbicidal rate of 5% or less (almost no effect))
herbicidal effect rating, H: barnyard grass (barnyard grass [4]; 320 g/ha): 0 (Herbicidal rate of 5% or less (almost no effect))
herbicidal effect rating, I: wild oat (wild oat [5]; 320 g/ha): 0 (Herbicidal rate of 5% or less (almost no effect))
herbicidal effect rating, J: blackgrass (blackgrass [6]; 320 g/ha): 0 (Herbicidal rate of 5% or less (almost no effect))
herbicidal effect rating, K: Italian ryegrass (Italian ryegrass [7]; 320 g/ha): 0 (Herbicidal rate of 5% or less (almost no effect))
herbicidal effect rating, L: windgrass (windgrass [8]; 320 g/ha): 0 (Herbicidal rate of 5% or less (almost no effect))
herbicidal effect rating, M: velvetleaf (velvetleaf [9]; 320 g/ha): 0 (Herbicidal rate of 5% or less (almost no effect))
herbicidal effect rating, N: redroot pigweed (redroot pigweed; 320 g/ha): 0 (Herbicidal rate of 5% or less (almost no effect))
herbicidal effect rating, O: lambsquarters (lambsquarters [10]; 320 g/ha): 2 (Herbicidal rate of 20% or more and less than 40%)
herbicidal effect rating, P: chickweed (chickweed; 320 g/ha): 0 (Herbicidal rate of 5% or less (almost no effect))
herbicidal effect rating, R: persian speedwell (persian speedwell [11]; 320 g/ha): 0 (Herbicidal rate of 5% or less (almost no effect))
effect on southern crabgrass (F) (southern crabgrass [12]; [24]): 0 (Herbicidal rate of 5% or less (almost no effect))
effect on green foxtail (G) (green foxtail [13]; [24]): 0 (Herbicidal rate of 5% or less (almost no effect))
effect on barnyard grass (H) (barnyard grass [14]; [24]): 0 (Herbicidal rate of 5% or less (almost no effect))
effect on wild oat (I) (wild oat [15]; [24]): 0 (Herbicidal rate of 5% or less (almost no effect))
effect on blackgrass (J) (blackgrass [16]; [24]): 0 (Herbicidal rate of 5% or less (almost no effect))
effect on Italian ryegrass (K) (Italian ryegrass [17]; [24]): 0 (Herbicidal rate of 5% or less (almost no effect))
effect on windgrass (L) (windgrass [18]; [24]): 0 (Herbicidal rate of 5% or less (almost no effect))
effect on velvetleaf (M) (velvetleaf [19]; [24]): 1 (Herbicidal rate of 5% or more and less than 20%)
effect on lambsquarters (O) (lambsquarters [20]; [24]): 3 (Herbicidal rate of 40% or more and less than 70%)
effect on persian speedwell (R) (persian speedwell [21]; [24]): 3 (Herbicidal rate of 40% or more and less than 70%)
